Measurements as given in US12077508B2, “Inhibitors of the Notch transcriptional activation complex kinase (“NACK”) and methods for use of the same” (UNIVERSITY OF MIAMI, priority 2018, dated 2024).
“Also recorded” adds a separate entry of the source. Like-named read-outs stand apart in the source and are kept apart here. Values belong to the compound of their own block, whether it stands above or below them.

Columns and labels:
Notch target genes = experiment: RT-qPCR of Notch target genes in Notch/NACK-dependent cells; format: cell-based, human; details: for down regulation of Notch target genes (q-PCR profile): compared to Z271-0326, FIGS. 13A-13D
Description: To assess the effect of NACK inhibitor on Notch target gene transcription, Notch/NACK-dependent cell lines were treated with NACK inhibitors. The cells were also treated with DAPT as a positive control. DMSO treated cells served as a vehicle control for comparison. Gene expression was normalized to HPRT, and TBP served as a negative control to validate normalization.
Reverse transcription and qPCR analysis were performed as described previously (See Weaver et al., Cancer Research 74, 4741-4751 (2014)). Gene expression was normalized to the TATA-binding protein (“TBP”) gene. As a control, hypoxanthine phosphoribosyltransferase 1 (“HPRT”) gene expression was also monitored.

OE33 cell line = experiment: Colony formation assay in OE33 cells; format: cell-based, human; details: for OE33 colony formation: cells treated every other day, FIGS. 5B, 5C; for EC50: Homo sapiens, read-out: EC50 colony formation titration assay
Description: (§1) A cell based colony formation assay was used in these experiments. Normal mouse mammary epithelia HC11 cells have little or no endogenous NACK expression, and NACK knockdown had no effect on the growth of HC11 cells (FIG. 5A, lower panel). […] Knockdown of NACK was confirmed by western blot and qPCR (FIGS. 1D and 1E). […] Therefore, compounds that affect OE33 colony formation but not HC11 were desired. In order to screen the compounds, cells were treated with test compounds every other day.
(§2) Colony formation assay was utilized to determine the effect of small molecule inhibitors on cell proliferation. In general, different cell lines (NACK dependent or independent) will be seeded in 6-well plates at a density of 2000 cells per well and allowed to attach overnight. Inhibitor treatment commenced 24 hours post seeding, and the media containing inhibitor was changed every 48 hours thereafter. After 168 hours, colonies were be stained with Crystal Violet (Millipore) and counted.

[1] = biological target: T1, NACK binding to the Notch transcription complex (Mus musculus, UniProt Q571I4); experiment: CSL-DNA affinity precipitation (CSL-DAP) assay; format: cell-based; details: 293T cells transfected with N1ICD, Maml1, NACK; 2 hours treatment; FIG. 6A
T1 construct: expressed in transfected cells; host or cells: 293T
T1 sequence (Q571I4 1-1373): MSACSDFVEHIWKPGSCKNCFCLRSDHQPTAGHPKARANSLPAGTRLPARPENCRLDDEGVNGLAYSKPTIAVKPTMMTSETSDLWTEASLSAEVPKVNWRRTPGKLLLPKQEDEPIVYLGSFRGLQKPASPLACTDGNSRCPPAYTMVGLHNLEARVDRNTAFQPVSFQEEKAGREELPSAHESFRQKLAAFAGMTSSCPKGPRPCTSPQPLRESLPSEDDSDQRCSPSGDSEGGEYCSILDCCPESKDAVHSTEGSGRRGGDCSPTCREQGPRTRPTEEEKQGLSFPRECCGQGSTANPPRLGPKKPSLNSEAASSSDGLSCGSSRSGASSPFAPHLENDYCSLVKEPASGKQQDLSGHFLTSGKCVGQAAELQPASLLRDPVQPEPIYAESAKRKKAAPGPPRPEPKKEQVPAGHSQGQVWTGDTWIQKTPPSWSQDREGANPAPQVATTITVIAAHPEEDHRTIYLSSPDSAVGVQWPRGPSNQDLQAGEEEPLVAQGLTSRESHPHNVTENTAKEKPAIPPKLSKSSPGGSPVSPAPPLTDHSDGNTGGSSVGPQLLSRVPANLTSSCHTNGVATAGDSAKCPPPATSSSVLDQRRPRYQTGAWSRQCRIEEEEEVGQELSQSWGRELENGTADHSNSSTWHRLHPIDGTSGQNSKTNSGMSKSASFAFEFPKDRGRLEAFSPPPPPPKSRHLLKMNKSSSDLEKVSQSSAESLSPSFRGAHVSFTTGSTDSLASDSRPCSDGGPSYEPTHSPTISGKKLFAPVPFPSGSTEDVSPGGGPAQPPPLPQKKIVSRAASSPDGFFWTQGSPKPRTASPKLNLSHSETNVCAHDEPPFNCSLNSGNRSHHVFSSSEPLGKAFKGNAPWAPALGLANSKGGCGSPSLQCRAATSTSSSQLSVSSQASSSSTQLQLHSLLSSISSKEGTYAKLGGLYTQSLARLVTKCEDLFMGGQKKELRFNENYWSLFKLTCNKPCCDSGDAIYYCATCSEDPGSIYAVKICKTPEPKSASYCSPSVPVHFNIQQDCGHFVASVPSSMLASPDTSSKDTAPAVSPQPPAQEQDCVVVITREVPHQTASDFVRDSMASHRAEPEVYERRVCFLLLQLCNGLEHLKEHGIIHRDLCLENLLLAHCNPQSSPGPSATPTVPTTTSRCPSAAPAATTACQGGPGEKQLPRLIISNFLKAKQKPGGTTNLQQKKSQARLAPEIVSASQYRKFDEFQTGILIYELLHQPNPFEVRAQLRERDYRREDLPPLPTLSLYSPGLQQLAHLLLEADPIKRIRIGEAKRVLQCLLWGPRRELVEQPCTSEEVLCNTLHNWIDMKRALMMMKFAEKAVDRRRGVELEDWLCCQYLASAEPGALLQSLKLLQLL
Description: To determine the specificity of hit-to-lead compounds targeting NACK activity, it was evaluated whether iNACK can block NACK binding to the Notch complex by conducting CSL-DNA affinity precipitation (CSL-DAP) assay. […] In the CSL-DAP assay, 293T cells were co-transfected with N1^ICD, Maml1 and NACK. Transfections were performed using LipoJet transfection reagent (SL100468, SignaGen Laboratories) according to the manufacturer recommended protocol. After two days of transfection, cells were treated with compounds for 2 hours prior collecting the cell lysate. Cell lysates were incubated with DNA streptavidin beads. Proteins that bound to the beads were analyzed by Western blot.
Western blot was performed as described previously (See Weaver et al., Cancer Research 74, 4741-4751 (2014)). Primary antibodies were α-NACK (1:1,000; against aa209-287 of NACK and affinity purified), α-CSL (1:1,000; generated against full-length CSL and affinity purified), α-Maml1 (1:5,000; Cell Signaling Technology), α-cleaved-Notch1 (1:1,000; Cell Signaling Technology).

NACK = biological target: T2, NACK (Mus musculus, UniProt Q571I4); experiment: Surface plasmon resonance (SPR) binding to GST tagged NACK
T2 sequence (Q571I4 1-1373): T1 sequence (Q571I4 1-1373)
Description: The interaction between inhibitor Z271-0326 and target NACK was characterized using surface plasmon resonance (SPR). For this purpose, GST tagged NACK was captured by a GST antibody that was previously immobilized onto the surface of the chip through standard amide coupling. The dissociation constants associated with binding of the compounds to NACK was determined using the equilibrium approach, which consists of plotting the equilibrium response (Req) as a function of concentration of the compound and fitting the data to a 1:1 binding model.
A GST capture kit (GE Healthcare) were utilized to covalently immobilize an anti-GST antibody, provided in the kit, to the sensor chip surface (CM5 chip, GE Healthcare) by following the manufacturer's instructions. Capture were performed by injecting GST-NACK (1 μg/μL) over the immobilized anti-GST antibody in Hepes buffer (10 mM Hepes, pH 7.5, 150 mM NaCl, 3 mM EDTA, 0.0005% NP-40) for 7 min at 10 μL/min. A reference flow cell was prepared by capturing GST following the procedure described above. […] Experiments were performed on a Biacore T200 instrument (GE Healthcare) at 25° C. Small molecule inhibitors binding to NACK were performed in 50 mM Tris buffer, pH 7.5, containing 150 mM NaCl, 10 mM MgCl2 and 5% DMSO (running buffer). The SPR signal arising from the sample was corrected for its respective control containing DMSO. Data visualization and analysis was performed using Biacore T200 software (GE Healthcare) and Origin 8.0 (OriginLab).

HC11 cells = experiment: Colony formation assay in HC11 cells; format: cell-based, mouse; details: Notch/NACK independent cell line; FIG. 5B
Description: as §1, §2

OE33 spheres = experiment: Tumor sphere formation assay in OE33; format: cell-based, human; details: OE33; FIG. 7A
Description: In order to assess the effect of hit to lead compounds on the proliferation of stem cell like population of Notch/NACK dependent cells, the primary tumor spheres were treated with NACK inhibitor and allow the cells to be propagated as secondary cultures. To obtain tumor spheres, cells were cultured in DMEM/F12 with 2% B-27 serum-free supplement (17604-044; Invitrogen), 20 ng/mL epidermal growth factor (EGF; PHG0311L; Invitrogen), and 20 ng/mL basic fibroblastic growth factor (bFGF; PHG0266; Invitrogen) for 14 days. Resulting tumor spheres were examined and counted under the microscope. Furthermore, the tumor spheres were collected for further RT-qPCR analysis to test the effect of hit to lead compounds on the stem like target genes.

Structure (SMILES): CCN(CC)C(=O)c1cnn2ccc(C3CCN(S(=O)(=O)c4ccc(NC(=O)OC)cc4)CC3)cc12 [Compound 7C, methyl N-[4-({4-[3-(diethylcarbamoyl)pyrazolo[1,5-a]pyridin-5-yl]piperidinyl}sulfonyl)phenyl]carbamate]
expression of oncogenes cMYC, CCND1, HES1 (Q-PCR) (Notch target genes; with respect to DMSO and Z271-0326, FIG. 16): downregulate oncogenes cMYC, CCND1, and HES1

Structure (SMILES): CC(=O)Nc1ccc(S(=O)(=O)N2CCC(c3ccn4ncc(C(=O)N5CCCC5)c4c3)CC2)cc1 [Compound 7H, N-[4-({4-[3-(pyrrolidine-1-carbonyl)pyrazolo[1,5-a]pyridin-5-yl]piperidin-1-yl}sulfonyl)phenyl]acetamide]
down regulation of Notch target genes (q-PCR profile) (Notch target genes): performed the best in down regulating Notch target genes, even better than Z271-0326

Structure (SMILES): O=C(c1cnn2ccc(C3CCN(S(=O)(=O)Cc4ccccc4)CC3)cc12)N1CCCCC1 [Compound Z271-0132]
selectivity between OE33 and HC11 cell lines (OE33 cell line; colony formation): displays no selectivity between OE33 and HC11 cell lines | inhibition of NACK binding to the Notch transcription complex [1]: dramatically inhibit NACK binding to the NOTCH transcription complex; also recorded: blocks binding of NACK to the ternary complex

Kd (NACK; SPR, FIG. 4C, read-out: binding constant): ~1500 nM | Kd (NACK; equilibrium approach, 1:1 binding model, 25° C., FIG. 10A, read-out: KD): 1500 ± 500 nM
Structure (SMILES): Nc1ncnc2c1ncn2[C@@H]1O[C@H](COP(=O)(O)OP(=O)(O)NP(=O)(O)O)[C@@H](O)[C@H]1O [AMP-PNP]

Structure (SMILES): N#Cc1cccc(NC(=O)N2CCC(c3ccn4ncc(C(=O)N5CCCCC5)c4c3)CC2)c1 [Compound Z270-0137]
OE33 colony formation (OE33 cell line): effectively inhibit OE33 colony formation | HC11 colony formation / viability (HC11 cells): but not HC11 cell

Structure (SMILES): CC(=O)Nc1ccc(S(=O)(=O)N2CCC(c3ccn4ncc(C(=O)N5CCCCC5)c4c3)CC2)cc1 [Compound 7M, N-[4-({4-[3-(piperidine-1-carbonyl)pyrazolo[1,5-a]pyridin-5-yl]piperidin-1-yl}sulfonyl)phenyl]acetamide]
down regulation of Notch target genes (q-PCR profile) (Notch target genes): can also down regulate Notch target genes, but not as good as compound 7H

EC50 (OE33 cell line; OE33, OE33 cell line, FIG. 18): 608 nM
Structure (SMILES): CC(C)(C)OC(=O)Nc1ccc(S(=O)(=O)N2CCC(c3ccn4ncc(C(=O)N5CCCC5)c4c3)CC2)cc1 [Compound 71B, tert-butyl N-[4-({4-[3-(pyrrolidine-1-carbonyl)pyrazolo[1,5-a]pyridin-5-yl]piperidin-1-yl}sulfonyl)phenyl]carbamate]

EC50 (OE33 cell line; OE33, estimated, FIG. 6C): 3740 nM
Structure (SMILES): CC1CCN(C(=O)c2cnn3ccc(C4CCN(S(=O)(=O)c5ccccc5)CC4)cc23)CC1 [Compound Z271-0191]
mRNA levels of Notch target genes Hes1 and Notch3 (Notch target genes; OE33, FIG. 6B): decrease the mRNA levels of Notch target genes Hes1 and Notch3 | OE33 colony formation (OE33 cell line): effectively inhibit OE33 colony formation | HC11 colony formation / viability (HC11 cells): but not HC11 cell | secondary sphere formation (OE33 spheres): less effective compared to Z271-0326 | inhibition of NACK binding to the Notch transcription complex [1]: dramatically inhibit NACK binding to the NOTCH transcription complex

EC50 (OE33 cell line; OE33, OE33 cell line, FIG. 18): 330 nM
Structure (SMILES): CC(=O)Nc1ccc(S(=O)(=O)N2CCC(c3ccn4ncc(C(=O)N5CCC5)c4c3)CC2)cc1 [Compound 71C, N-[4-({4-[3-(azetidine-1-carbonyl)pyrazolo[1,5-a]pyridin-5-yl]piperidin-1-yl}sulfonyl)phenyl]acetamide]
